# Source: ChEMBL document CHEMBL5030547, “Synthesis and biological studies of new piperidino-1,2,3-triazole hybrids with 3-aryl isoxazole side chains” (Bioorg Med Chem Lett, 2021)
# What was measured:
# Fibroblast = assay: Cytotoxicity against human skin fibroblast cells assessed as reduction in cell viability after 48 hrs; assay type: cell-based
# Huh-7 = assay: Cytotoxicity against human Huh-7 cells assessed as reduction in cell viability after 48 hrs; assay type: functional, cell-based; conditions: Huh-7, 48 h
# MCF7 [1] = assay: Cytotoxicity against human MCF7 cells assessed as reduction in cell viability after 48 hrs; assay type: functional, cell-based; conditions: MCF7, 48 h
# HCT-116 = assay: Cytotoxicity against human HCT-116 cells assessed as reduction in cell viability after 48 hrs; assay type: functional, cell-based; conditions: HCT-116, 48 h
# PC-3 = assay: Cytotoxicity against human PC-3 cells assessed as reduction in cell viability after 48 hrs; assay type: functional, cell-based; conditions: PC-3, 48 h
# MDA-MB-468 = assay: Cytotoxicity against human MDA-MB-468 cells assessed as reduction in cell viability after 48 hrs; assay type: functional, cell-based; conditions: MDA-MB-468, 48 h
# MDA-MB-231 = assay: Cytotoxicity against human MDA-MB-231 cells assessed as reduction in cell viability after 48 hrs; assay type: functional, cell-based; conditions: MDA-MB-231, 48 h
# Caco-2 = assay: Cytotoxicity against human Caco-2 cells assessed as reduction in cell viability after 48 hrs; assay type: functional, cell-based; conditions: Caco-2, 48 h
# MCF7 [2] = assay: Inhibition of Bcl-XL- PUMA protein-protein interaction in human MCF7 cells at 20 uM incubated for overnight by BRET assay relative to control; assay type: cell-based
# [3] = Inhibition of Bcl-XL- PUMA protein-protein interaction in human MCF7 cells incubated for overnight by BRET assay; assay type: cell-based
IC50 [3],Compound,IC50 (Fibroblast),IC50 (Huh-7; read-out: IC50),IC50 (MCF7 [1]),IC50 (HCT-116),IC50 (PC-3),IC50 (MDA-MB-468),IC50 (MDA-MB-231),IC50 (Caco-2),IC50 (Huh-7),inhibition (MCF7 [2])
,O=[N+]([O-])c1ccc(CN2CCC(n3cc(CC(OCc4cc(-c5ccccc5)no4)c4ccc(Br)cc4)nn3)CC2)cc1 (centres undefined),> 25 µM,7 µM,> 25 µM,> 25 µM,> 25 µM,3 µM,> 25 µM,7 µM,,
,O=[N+]([O-])c1ccc(CN2CCC(n3cc(CC(OCc4cc(-c5ccc(F)cc5)no4)c4ccc(Br)cc4)nn3)CC2)cc1 (centres undefined),> 25 µM,2 µM,7 µM,> 25 µM,> 25 µM,4 µM,> 25 µM,3 µM,,
,CC[C@H](CO)Nc1nc(NCc2ccccc2)c2ncn(C(C)C)c2n1 [SELICICLIB],15 µM,,,,11 µM,18 µM,17 µM,,9 µM,
,O=[N+]([O-])c1ccc(CN2CCC(n3cc(CC(OCc4cc(-c5ccccc5Br)no4)c4ccc(Br)cc4)nn3)CC2)cc1 (centres undefined),> 25 µM,> 25 µM,6 µM,> 25 µM,> 25 µM,> 25 µM,> 25 µM,3 µM,,
,N#Cc1ccc(-c2cc(COC(Cc3cn(C4CCN(Cc5ccc([N+](=O)[O-])cc5)CC4)nn3)c3ccc(Br)cc3)on2)cc1 (centres undefined),> 25 µM,5 µM,3 µM,> 25 µM,2 µM,5 µM,> 25 µM,2 µM,,
3.8 µM,O=[N+]([O-])c1ccc(CN2CCC(n3cc(CC(OCc4cc(-c5ccccc5F)no4)c4ccc(Br)cc4)nn3)CC2)cc1 (centres undefined),> 25 µM,2 µM,8 µM,9 µM,6 µM,4 µM,4 µM,4 µM,,10%
,COc1ccccc1-c1cc(COC(Cc2cn(C3CCN(Cc4ccc([N+](=O)[O-])cc4)CC3)nn2)c2ccc(Br)cc2)on1 (centres undefined),> 25 µM,5 µM,3 µM,> 25 µM,> 25 µM,> 25 µM,> 25 µM,> 25 µM,,
,O=[N+]([O-])c1ccc(CN2CCC(n3cc(CC(OCc4cc(-c5cccc(Br)c5)no4)c4ccc(Br)cc4)nn3)CC2)cc1 (centres undefined),> 25 µM,3 µM,6 µM,> 25 µM,> 25 µM,> 25 µM,> 25 µM,5 µM,,
,O=[N+]([O-])c1ccc(CN2CCC(n3cc(CC(OCc4cc(-c5cccc(F)c5)no4)c4ccc(Br)cc4)nn3)CC2)cc1 (centres undefined),10 µM,3 µM,8 µM,6 µM,9 µM,3 µM,5 µM,5 µM,,
,O=[N+]([O-])c1ccc(CN2CCC(n3cc(CC(OCc4cc(-c5ccc(Br)cc5)no4)c4ccc(Br)cc4)nn3)CC2)cc1 (centres undefined),> 25 µM,2 µM,4 µM,> 25 µM,> 25 µM,5 µM,> 25 µM,3 µM,,
,COc1cccc2c1C(=O)c1c(O)c3c(c(O)c1C2=O)C[C@@](O)(C(=O)CO)C[C@@H]3O[C@H]1C[C@H](N)[C@H](O)[C@H](C)O1 [DOXORUBICIN],0.02 µM,0.02 µM,0.1 µM,0.08 µM,,0.06 µM,0.04 µM,,,
,COc1ccc(-c2cc(COC(Cc3cn(C4CCN(Cc5ccc([N+](=O)[O-])cc5)CC4)nn3)c3ccc(Br)cc3)on2)cc1 (centres undefined),> 25 µM,2 µM,4 µM,> 25 µM,3 µM,9 µM,> 25 µM,3 µM,,
,N#Cc1cccc(-c2cc(COC(Cc3cn(C4CCN(Cc5ccc([N+](=O)[O-])cc5)CC4)nn3)c3ccc(Br)cc3)on2)c1 (centres undefined),> 25 µM,3 µM,2 µM,> 25 µM,> 25 µM,> 25 µM,> 25 µM,3 µM,,
,COc1cccc(-c2cc(COC(Cc3cn(C4CCN(Cc5ccc([N+](=O)[O-])cc5)CC4)nn3)c3ccc(Br)cc3)on2)c1 (centres undefined),> 25 µM,5 µM,7 µM,> 25 µM,> 25 µM,> 25 µM,> 25 µM,5 µM,,
